Experimental data from patent publication US11286268B1, “EIF4E-inhibiting compounds and methods” (EFFECTOR THERAPEUTICS, INC., priority 2019, dated 2022).
Where two headings read alike, the source gives them in different places.

Molecular target: recombinant eIF4E (Homo sapiens (Human), UniProt P06730)
Assay: Fluorescence polarization competition assay for eIF4E binding potency
Method: Compounds were screened for eIF4E binding potency using a fluorescence polarization competition assay. All binding reactions were performed in fluorescence polarization buffer (FPB) containing 20 mM Tris pH 7.5, 100 mM NaCl, 1 mM DTT, and 0.02% Tween-20. Final binding reactions contained 75 nM recombinant eIF4E (Beryllium, custom order), 20 nM EDA-m^7GDP-ATTO-550 (Jena Bioscience, NU-827-550) and varying concentrations of the inhibitory compound of interest. Final DMSO concentration in each reaction was 1%.
eIF4E protein was pre-incubated with EDA-m^7GDP-ATTO-550 in FPB at 2× concentrations for 5 minutes prior to the addition of compounds. Compounds (100×) were prepared using 3-fold serial dilutions in 100% DMSO, and subsequently diluted 1:50 in FPB to produce 2× stocks. 50 μl of 2× eIF4E/EDA-m^7GDP-ATTO-550 were transferred to the wells of a 96-well half-area black flat bottom polystyrene plate. 50 μl of 2× test compound were added, and binding reactions were allowed to equilibrate for 30 minutes at room temperature while protected from light. The fluorescent polarization signal was detected using a Victor 2 multi-label counter (Perkin Elmer) and the concentration necessary to achieve inhibition of eIF4E/EDA-m^7GDP-ATTO-550 binding by 50% (IC50) was calculated using data from an 8-point compound dilution series.
In Table 4A, IC50 values of less than 0.05 μM are labelled as “+++”, from 1 to 0.05 μM are labelled as “++”, and greater than 1 μM are labelled as “+”. ND=not determined.

[1] = fluorescence polarization competition, 75 nM recombinant eIF4E, 20 nM EDA-m7GDP-ATTO-550, IC50 class, read-out: elF4E FP
[2] = inhibition of eIF4E/EDA-m7GDP-ATTO-550 binding by 50%, Table 4B calculated values, read-out: IC50

recombinant eIF4E, sequence (P06730 whole entry): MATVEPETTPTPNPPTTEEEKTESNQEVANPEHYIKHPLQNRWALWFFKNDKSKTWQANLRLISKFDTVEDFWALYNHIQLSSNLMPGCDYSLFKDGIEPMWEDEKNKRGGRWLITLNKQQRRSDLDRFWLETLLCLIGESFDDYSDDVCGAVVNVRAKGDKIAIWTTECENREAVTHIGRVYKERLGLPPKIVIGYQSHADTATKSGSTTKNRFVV

SMILES	IC50 [1]	IC50 [2]
CNc1nc2c(F)ccc(CCOc3ccc(Cl)cc3-c3cccc(C(=O)O)c3)c2c(=O)[nH]1 [compound 171]	50 to 1000 nM	194 nM
CNc1nc2c(F)c(F)cc(CCOc3ccc(Cl)cc3-c3cccc(C(=O)O)c3)c2c(=O)[nH]1 [compound 172]	50 to 1000 nM	92.3 nM
N#Cc1c(F)cc(CCOc2ccc(Cl)cc2-c2cccc(C(=O)O)c2)c2c(=O)[nH]c(Nc3ccccc3)nc12 [compound 174]	50 to 1000 nM	52.1 nM
N#Cc1cn(CCOc2ccc(Cl)cc2-c2ccnc3c(C(=O)O)csc23)c2c(=O)[nH]c(Nc3ccccc3)nc12 [compound 175]	< 50 nM	20.4 nM
N#Cc1ncc(CCOc2ccc(Cl)cc2-c2cccc(C(=O)O)c2)c2c(=O)[nH]c(Nc3ccccc3)nc12 [compound 179]	< 50 nM	20.6 nM
N#Cc1cc(C(F)(F)F)cc2nc(CF)n(CCOc3ccc(Cl)cc3-c3ccnc4c(C(=O)O)csc34)c(=O)c12 [compound 181]	50 to 1000 nM	62.3 nM
Cc1nc2c(C(C)C)nc(N3CCN(CCF)CC3)c(C#N)c2c(=O)n1CCOc1ccc(Cl)cc1-c1ccnc2c(C(=O)O)csc12 [compound 183]	50 to 1000 nM	50.2 nM
N#Cc1cncc2ncn(CCOc3ccc(Cl)cc3-c3ccc(C(=O)O)c(CCCCC(O)CO)c3)c(=O)c12 (stereo not shown) [compound 184]	50 to 1000 nM	
N#Cc1cc(C(F)(F)F)cc2nc(C#N)n(CCOc3ccc(Cl)cc3-c3cccc(C(=O)O)c3)c(=O)c12 [compound 185]	50 to 1000 nM	94.9 nM
N#Cc1cc(C(F)(F)F)cc2nc(O)n(CCOc3ccc(Cl)cc3-c3cccc(C(=O)O)c3)c(=O)c12 [compound 186]	50 to 1000 nM	344 nM
Cc1nc2ccc(S(C)(=O)=O)c(C#N)c2c(=O)n1CCOc1ccc(Cl)cc1-c1ccnc2c(C(=O)O)csc12 [compound 195]	< 50 nM	27.4 nM
Cc1nc2c(C#N)cc(C(F)F)c(C#N)c2c(=O)n1CCOc1ccc(Cl)cc1-c1ccnc2c(C(=O)O)csc12 [compound 197]	50 to 1000 nM	52.4 nM
Cc1nc2cc(Cl)cc(C#N)c2c(=O)n1CCOc1ccc(Cl)cc1-c1ccnc2c(C(=O)O)csc12 [compound 200]	< 50 nM	43.5 nM
Cc1nc2cc(C(F)(F)F)cc(C#N)c2c(=O)n1CCOc1ccc(Cl)cc1-c1csc2c(C(=O)O)csc12 [compound 203]	50 to 1000 nM	80.6 nM
Cc1nc2c(-c3cncnc3)ccc(C#N)c2c(=O)n1CCOc1ccc(Cl)cc1-c1ccnc2c(C(=O)O)csc12 [compound 204]	< 50 nM	44.4 nM
Cc1nc2c(Cl)cc(Cl)c(C#N)c2c(=O)n1CCOc1ccc(Cl)cc1-c1ccnc2c(C(=O)O)csc12 [compound 209]	< 50 nM	47 nM
Cc1nc2c(C#N)c(C(F)(F)F)cc(C#N)c2c(=O)n1CCOc1ccc(Cl)cc1-c1ccnc2c(C(=O)O)csc12 [compound 210]	50 to 1000 nM	91 nM
C#Cc1ccc(C#N)c2c(=O)n(CCOc3ccc(Cl)cc3-c3ccnc4c(C(=O)O)csc34)c(C)nc12 [compound 211]	< 50 nM	35.4 nM
C#Cc1cc(C#N)c2c(=O)n(CCOc3ccc(Cl)cc3-c3ccnc4c(C(=O)O)csc34)c(C)nc2c1 [compound 213]	< 50 nM	35.6 nM
Cc1nc2cc(C(C)(F)F)cc(C#N)c2c(=O)n1CCOc1ccc(Cl)cc1-c1ccnc2c(C(=O)O)csc12 [compound 217]	50 to 1000 nM	55.4 nM
Cc1nc2cc(C(F)(F)F)cc(S(C)(=O)=O)c2c(=O)n1CCOc1ccc(Cl)cc1-c1ccnc2c(C(=O)O)csc12 [compound 223]	50 to 1000 nM	950 nM

The remaining lines, values ahead:

IC50 [1]	IC50 [2]	SMILES
50 to 1000 nM	845 nM	O=C(O)c1cccc(-c2cc(Cl)ccc2OCCc2cccc3nc[nH]c(=O)c23)c1 [compound 170]
50 to 1000 nM	141 nM	O=C(O)c1cccc(-c2cc(Cl)ccc2OCCc2cnc(C(F)F)c3nc(Nc4ccccc4)[nH]c(=O)c23)c1 [compound 173]
< 50 nM	41.5 nM	O=C(O)c1cccc(-c2cc(Cl)ccc2OCCc2ccnc3nc(Nc4ccccc4)[nH]c(=O)c23)c1 [compound 176]
< 50 nM	26.8 nM	N#Cc1ncc(CCOc2ccc(Cl)cc2-c2cccc(C(=O)O)c2)c2c(=O)[nH]c(NCC(F)(F)F)nc12 [compound 177]
50 to 1000 nM	140 nM	O=C(O)c1cccc(-c2cc(Cl)ccc2OCCc2cc(C(F)(F)F)nc3nc(Nc4ccccc4)[nH]c(=O)c23)c1 [compound 178]
< 50 nM	47.7 nM	Cc1c(CCOc2ccc(Cl)cc2-c2ccnc3c(C(=O)O)csc23)c(=O)c2c(C#N)cc(C(F)(F)F)cc2n1C [compound 180]
< 50 nM	43.8 nM	N#Cc1cc(C(F)(F)F)cc2nc(CF)n(CCOc3ccc(Cl)cc3-c3cccc(C(=O)O)c3)c(=O)c12 [compound 182]
< 50 nM	48.3 nM	N#Cc1cc(C(F)(F)F)cc2nc(Cl)n(CCOc3ccc(Cl)cc3-c3cccc(C(=O)O)c3)c(=O)c12 [compound 187]
50 to 1000 nM	63.2 nM	N#Cc1c(C(F)F)ccc2nc(C(F)F)n(CCOc3ccc(Cl)cc3-c3ccnc4c(C(=O)O)csc34)c(=O)c12 [compound 188]
> 1000 nM	1570 nM	N#Cc1cccc2nc(C(F)F)n(CCOc3ccc(Cl)cc3-c3nccc4c(C(=O)O)csc34)c(=O)c12 [compound 189]
50 to 1000 nM	301 nM	N#Cc1cccc2nc(C(F)F)n(CCOc3ccc(Cl)cc3-c3ccc(C(=O)O)c4cnsc34)c(=O)c12 [compound 190]
50 to 1000 nM	144 nM	N#Cc1cccc2nc(C(F)F)n(CCOc3ccc(Cl)cc3-c3ccc(C(=O)O)c4ccsc34)c(=O)c12 [compound 191]
> 1000 nM	1310 nM	N#Cc1cccc2nc(C(F)F)n(CCOc3ccc(Cl)cc3-c3cncn(CC(=O)O)c3=S)c(=O)c12 [compound 192]
< 50 nM	35.8 nM	Cc1nc2cc(S(C)(=O)=O)cc(C#N)c2c(=O)n1CCOc1ccc(Cl)cc1-c1ccnc2c(C(=O)O)csc12 [compound 194]
< 50 nM	25.7 nM	Cc1nc2ccc(S(=O)(=O)N(C)C)c(C#N)c2c(=O)n1CCOc1ccc(Cl)cc1-c1ccnc2c(C(=O)O)csc12 [compound 196]
50 to 1000 nM	124 nM	Cc1nc2cc(C(F)(F)F)cc(Cl)c2c(=O)n1CCOc1ccc(Cl)cc1-c1ccnc2c(C(=O)O)csc12 [compound 198]
50 to 1000 nM	143 nM	Cc1nc2cc(C(F)(F)F)cc(C#N)c2c(=O)n1CCOc1ccc(Cl)cc1-c1ccnc2cc(C(=O)O)sc12 [compound 199]
50 to 1000 nM	354 nM	Cc1nc2cc(C(F)(F)F)cc(C#N)c2c(=O)n1CCOc1ccc(Cl)cc1-c1cc(C(=O)O)nc2ccsc12 [compound 201]
< 50 nM	47.4 nM	Cc1nc2cc(C(F)(F)F)cc(C#N)c2c(=O)n1CCOc1ccc(Cl)cc1-c1ccnc2c(CC(=O)O)csc12 [compound 202]
50 to 1000 nM	101 nM	Cc1sc2c(-c3cc(Cl)ccc3OCCn3c(C)nc4cc(C(F)(F)F)cc(C#N)c4c3=O)ccnc2c1C(=O)O [compound 205]
< 50 nM	21.3 nM	Cc1nc2cc(Cl)c(Cl)c(C#N)c2c(=O)n1CCOc1ccc(Cl)cc1-c1ccnc2c(C(=O)O)csc12 [compound 207]
50 to 1000 nM	103 nM	Cc1nc2cc(Cl)c(Cl)c(Cl)c2c(=O)n1CCOc1ccc(Cl)cc1-c1ccnc2c(C(=O)O)csc12 [compound 208]
< 50 nM	40 nM	Cc1nc2cc(C#N)cc(C#N)c2c(=O)n1CCOc1ccc(Cl)cc1-c1ccnc2c(C(=O)O)csc12 [compound 212]
50 to 1000 nM		Cc1nc2cc(C(F)(F)F)cc(C#N)c2c(=O)n1CCOc1ccc(Cl)cc1-c1ncnc2c(C(=O)O)csc12 [compound 215]
50 to 1000 nM	62.8 nM	Cc1nc2cc(C(F)(F)c3ccncc3)cc(C#N)c2c(=O)n1CCOc1ccc(Cl)cc1-c1ccnc2c(C(=O)O)csc12 [compound 216]
< 50 nM	16.9 nM	Cc1c(Cl)c2cc(C(F)(F)F)cc(C#N)c2c(=O)n1CCOc1ccc(Cl)cc1-c1ccnc2c(C(=O)O)csc12 [compound 218]
50 to 1000 nM	109 nM	Cc1nc2cc(C(F)(F)F)cc(C(F)(F)F)c2c(=O)n1CCOc1ccc(Cl)cc1-c1ccnc2c(C(=O)O)csc12 [compound 219]
50 to 1000 nM	213 nM	Cc1nc2cc(C(F)(F)F)cc(C(F)F)c2c(=O)n1CCOc1ccc(Cl)cc1-c1ccnc2c(C(=O)O)csc12 [compound 220]
50 to 1000 nM	113 nM	Cc1nc2cc(C(F)(F)F)cc(S)c2c(=O)n1CCOc1ccc(Cl)cc1-c1ccnc2c(C(=O)O)csc12 [compound 221]
50 to 1000 nM	147 nM	Cc1nc2cc(C(F)(F)F)cc(C#N)c2c(=O)n1CCOc1ccc(Cl)cc1-c1nccc2c(C(=O)O)csc12 [compound 225]
